Data as given in paper PMC12775434, “Ultra-large virtual screening unveils potent agonists of the neuromodulatory orphan receptor GPR139” (Nature Communications, 2025).
Values joined by “and” are separate entries in the source; they are usually repeats but may differ in a detail not shown here. Equal values may be shown once.

Experiments:
[1] = target: T1, GPR139 (Homo sapiens, UniProt Q6DWJ6); assay: Inositol monophosphate (IP1) accumulation assay, GPR139-CHOk1; assay type: cell-based; details: for IP1 response (% of Cmp 1a): replicate experiments
T1 sequence (Q6DWJ6 1-353): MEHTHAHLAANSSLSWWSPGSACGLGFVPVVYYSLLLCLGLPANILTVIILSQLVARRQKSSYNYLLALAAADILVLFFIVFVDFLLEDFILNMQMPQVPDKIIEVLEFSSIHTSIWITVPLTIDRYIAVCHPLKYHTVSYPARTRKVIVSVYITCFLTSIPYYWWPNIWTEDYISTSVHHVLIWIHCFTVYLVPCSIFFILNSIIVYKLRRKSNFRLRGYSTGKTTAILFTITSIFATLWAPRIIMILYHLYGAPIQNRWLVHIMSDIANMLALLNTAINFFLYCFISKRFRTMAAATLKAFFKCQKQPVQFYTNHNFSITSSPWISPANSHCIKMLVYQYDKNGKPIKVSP
Protocol: Primary screening and pharmacological characterization of compounds were performed using a CHO-K1 cell line that stably expresses human GPR139 (GPR139-CHOk1). The GPR139-CHOk1 cell line was kindly provided by H. Lundbeck A/S, Denmark[24]. GPR139-CHOk1 cells were grown in Ham’s F-12 Kaighn’s Modification Medium (ThermoFisher #21127030) supplemented with 10% dialyzed fetal bovine serum (US origin, ThermoFisher #26400044), 100 units/mL Penicillin-Streptomycin (ThermoFisher #15140122), and 1 mg/mL Geneticin (ThermoFisher #11811031). […] M1R-CHOk1 cells were purchased from The Missouri S&T cDNA Resource Center (#CEM100TN00). M1R-CHOk1 cells were grown in Ham’s F12 Medium (ThermoFisher #21765029) supplemented with 10% fetal bovine serum (Brazilian origin, ThermoFisher #10270106), 100 units/mL Penicillin-Streptomycin, and 0.25 mg/mL Geneticin. HEK293A cells transiently transfected with GPR139 were used for additional pharmacological assessment of signaling pathways activated by GPR139. HEK239A cells were generously provided by Dr. Asuka Inoue, Tohoku University, Japan. HEK293A cells were grown in Dulbecco’s Modified Eagle Medium (ThermoFisher #31966047) supplemented with 10% dialyzed fetal bovine serum and 100 units/mL Penicillin-Streptomycin. Cell lines were maintained at 37 °C in humidified incubator equilibrated with 5% CO2.
HTRF IP-One Gq kit (Cisbio #62IPAPEC) was used to detect the accumulation of inositol monophosphate (IP1) as described in the work by Shehata et al.[26]. GPR139-CHOk1 cells were dissociated and resuspended in HEPES buffer. 50,000 cells in 5 µL and 5 µL test compounds diluted from DMSO stocks (final DMSO concentration of maximally 0.3%) in HEPES buffer supplemented with 40 mM LiCl were mixed in each well of white 384-well OptiPlate (PerkinElmer #6007290). The cells were incubated for 1 h at 37 °C. Then, 10 µL detection reagent composed of 2.5% Eu3 + -anti-IP1 antibody and 2.5% IP1-d2 diluted in lysis buffer was added, and the cells were incubated for 1 h at room temperature before measurements. Measurements were performed on EnVision Multimode Plate Reader (PerkinElmer) using excitation light of 340 nm and emission light of 615 nm and 665 nm. The time resolved-fluorescence resonance energy transfer (TR-FRET) 665 nm/615 nm ratio, which is inversely proportional to the IP1 accumulation, was used to determine the IP1 response.
Pharmacological data and statistical analyses were performed in GraphPad Prism v9–10 (Graphpad Software Inc., San Diego, CA), which are also specifically described in the figure and table legends. The functional assay responses were normalized to buffer (0%) and Lundbeck Cmp 1a or JNJ-63533054 (100%), for Ca^2+ and IP1 experiments in the GPR139-CHOk1 stable cell line or Ca^2+, G protein activation, and arrestin-3 recruitment experiments in the HEK293A cells transiently transfected with GPR139, respectively. Data are from at least three independent experiments, unless stated otherwise. Concentration-response curves were fitted applying non-linear regression using the log (agonist) versus response model with variable slope. ANOVA was applied for comparing results and determining statistical significance. Comparison of responses to the reference was performed using one-way ANOVA with Dunnett’s multiple comparisons test at significance threshold of p < 0.05. Comparison of responses across assays and ligands was performed using two-way ANOVA with Tukey’s multiple comparisons test at a significance threshold of p < 0.05.

[2] = target: T1, GPR139; assay: Ca2+ mobilization assay, agonist mode, stable GPR139-CHOk1 cell line; assay type: cell-based
In short: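 Agonist activity of compounds is assessed in stably transfected CHO-K1 cells using the calcium dye Fluo-4 at 37 °C in HEPES-buffered HBSS (pH 7.4). Efficacy is expressed relative to the reference agonist Lundbeck Cmp 1a, set as 100%.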

[3] = system: patients with schizophrenia and major depressive disorder; details: cited from earlier work

## C[C@H](NC(=O)Cn1nnc2ccccc2c1=O)c1ccc(OC(F)(F)F)cc1 [TAK-041, reference compound]
[1]; Supplementary Table 4, normalized to Lundbeck Cmp 1a, read-out: Emax (%), IP1 accumulation
  Emax: 101 ± 9%
[1]; log [Compound] M -4.5
  IP1 response (% of Cmp 1a): 112 % of Cmp 1a and 93 % of Cmp 1a and 83 % of Cmp 1a and 114 % of Cmp 1a
[1]; log [Compound] M -5.0
  IP1 response (% of Cmp 1a): 115 % of Cmp 1a and 78 % of Cmp 1a and 92 % of Cmp 1a and 118 % of Cmp 1a
[1]; log [Compound] M -5.5
  IP1 response (% of Cmp 1a): 87 % of Cmp 1a and 81 % of Cmp 1a and 75 % of Cmp 1a and 93 % of Cmp 1a
[1]; log [Compound] M -6.0
  IP1 response (% of Cmp 1a): 84 % of Cmp 1a and 66 % of Cmp 1a and 75 % of Cmp 1a and 94 % of Cmp 1a
[1]; log [Compound] M -6.5
  IP1 response (% of Cmp 1a): 86 % of Cmp 1a and 56 % of Cmp 1a and 45 % of Cmp 1a and 98 % of Cmp 1a
[1]; log [Compound] M -7.0
  IP1 response (% of Cmp 1a): 63 % of Cmp 1a (2×) and 41 % of Cmp 1a and 62 % of Cmp 1a
[1]; log [Compound] M -7.5
  IP1 response (% of Cmp 1a): 51 % of Cmp 1a and 26 % of Cmp 1a and 33 % of Cmp 1a and 49 % of Cmp 1a
[1]; log [Compound] M -8.0
  IP1 response (% of Cmp 1a): 28 % of Cmp 1a and -3.49 % of Cmp 1a and 8 % of Cmp 1a and 21 % of Cmp 1a
[2]; log [Compound] M -5.5, replicate experiments
  Ca2+ signal (% of Cmp 1a): 99 % of Cmp 1a and 95 % of Cmp 1a and 92 % of Cmp 1a
[2]; log [Compound] M -6.0, replicate experiments
  Ca2+ signal (% of Cmp 1a): 80 % of Cmp 1a and 94 % of Cmp 1a and 83 % of Cmp 1a
[2]; log [Compound] M -6.5, replicate experiments
  Ca2+ signal (% of Cmp 1a): 83 % of Cmp 1a and 80 % of Cmp 1a (2×)
[2]; log [Compound] M -7.0, replicate experiments
  Ca2+ signal (% of Cmp 1a): 63 % of Cmp 1a and 62 % of Cmp 1a (2×)
[2]; log [Compound] M -7.5, replicate experiments
  Ca2+ signal (% of Cmp 1a): 35 % of Cmp 1a and 36 % of Cmp 1a and 41 % of Cmp 1a
[2]; log [Compound] M -8.0, replicate experiments
  Ca2+ signal (% of Cmp 1a): 16 % of Cmp 1a and 11 % of Cmp 1a and 17 % of Cmp 1a
[2]; log [Compound] M -8.5, replicate experiments
  Ca2+ signal (% of Cmp 1a): 0 % of Cmp 1a
[2]; log [Compound] M -9.0, replicate experiments
  Ca2+ signal (% of Cmp 1a): 0 % of Cmp 1a
[2]; log [Compound] M = -5.5, individual replicate columns
  Ca2+ signal (% of Cmp 1a): 99 % of Cmp 1a and 95 % of Cmp 1a and 92 % of Cmp 1a
[2]; log [Compound] M = -6.0, individual replicate columns
  Ca2+ signal (% of Cmp 1a): 80 % of Cmp 1a and 94 % of Cmp 1a and 83 % of Cmp 1a
[2]; log [Compound] M = -6.5, individual replicate columns
  Ca2+ signal (% of Cmp 1a): 83 % of Cmp 1a and 80 % of Cmp 1a (2×)
[2]; log [Compound] M = -7.0, individual replicate columns
  Ca2+ signal (% of Cmp 1a): 63 % of Cmp 1a and 62 % of Cmp 1a (2×)
[2]; log [Compound] M = -7.5, individual replicate columns
  Ca2+ signal (% of Cmp 1a): 35 % of Cmp 1a and 36 % of Cmp 1a and 41 % of Cmp 1a
[2]; log [Compound] M = -8.0, individual replicate columns
  Ca2+ signal (% of Cmp 1a): 16 % of Cmp 1a and 11 % of Cmp 1a and 17 % of Cmp 1a
[2]; log [Compound] M = -8.5, individual replicate columns
  Ca2+ signal (% of Cmp 1a): 0 % of Cmp 1a
[2]; log [Compound] M = -9.0, individual replicate columns
  Ca2+ signal (% of Cmp 1a): 0 % of Cmp 1a
[2]; read-out: Emax (%), Ca2+ mobilization
  Emax: 100 ± 3%
[3]; anhedonia in schizophrenia and major depressive disorder
  outcome of phase II trials: did not meet the primary endpoints
[3]
  safety and tolerability: good safety profile and was well tolerated
